# Results reported in patent US20220401514A1, “ANTIMICROBIAL, BACTERIOPHAGE-DERIVED POLYPEPTIDES AND THEIR USE AGAINST GRAM-NEGATIVE AND ACID-FAST BACTERIA” (CONTRAFECT CORPORATION, priority 2019, published 2022).
# Like-named read-outs stand apart in the source and are kept apart here.
# Key:
# M. avium = assay: 45 hr MIC against M. avium (NTM); assay type: cell-based, Mycobacterium avium; settings: M. avium Chester ATCC 700898
# [1] = Stability assessment in 100% CAA; assay type: in vitro ADME; design: unit not given beside the values
# Protocol: Stability was assessed after incubation in 100% human serum at 37° C. after 10 minutes, 1 hour, and 2 hours.
# Stability assessment was further conducted in 100% CAA and rabbit serum using the same methodology discussed above.
# [2] = tested on: P. aeruginosa strain CFS-1292; assay: MIC at pH 6, pH 7 and pH 8; assay type: cell-based, Pseudomonas aeruginosa
# Protocol: The Chp peptides were further evaluated at varying pH levels. The MIC values were determined at pH 6, pH 7, and pH 8 for 18 different Chp peptides against P. aeruginosa strain CFS-1292. […]
# [3] = tested on: P. aeruginosa strain CFS-1292; assay: MIC in presence of divalent cations (calcium chloride, magnesium sulfate); assay type: cell-based, Pseudomonas aeruginosa
# Protocol: Next, Chp peptides were evaluated in the presence of different divalent cations. […]; (2) in the presence of 2 mM calcium chloride alone; (3) in the presence of 1 mM magnesium sulfate alone; and (4) in the presence of both 2 mM calcium chloride and 1 mM magnesium sulfate. […]
# [4] = tested on: P. aeruginosa strain CFS-1292; assay: MIC in presence of mouse, rat, rabbit and human serum ([…] each); assay type: cell-based, Pseudomonas aeruginosa; settings: P. aeruginosa CFS-1292
# Protocol: The activity of several Chp peptides against P. aeruginosa strain CFS-1292 in animal serum was evaluated. […] Rat, mouse, and rabbit serum were all obtained from pooled gender samples.
# Klebsiella pneumoniae = assay type: cell-based
# Protocol: (§1) Determination of Minimal Inhibitory Concentrations (MIC).
# (§2) Additional MIC testing was performed for several peptides against the ESKAPE pathogens Escherichia coli, Enterobacter cloacae, Klebsiella pneumoniae, and Acinetobacter baumannii, in CAA supplemented with human serum (Table D).
# [5] = tested on: carbapenem-resistant P. aeruginosa clinical isolate CFS-1292; assay: MIC by modified CLSI broth microdilution against P. aeruginosa CFS-1292 (CAA, CAA + human serum); assay type: cell-based, Pseudomonas aeruginosa
# M. scrofulaceum = assay: 45 hr MIC against M. scrofulaceum (NTM); assay type: cell-based, Mycobacterium scrofulaceum; settings: M. scrofulaceum Prissick and Masson ATCC 19981
# Pseudomonas aeruginosa = assay: microbe, parasite or virus in culture; assay type: cell-based; settings: P. aeruginosa isolates (n per peptide in table)
# S. maltophilia = assay: MIC against S. maltophilia isolates; assay type: cell-based, Stenotrophomonas maltophilia
# Procedure, shortened: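 Chp peptides were tested on a set of S. maltophilia isolates (n = isolates per species), with minimal inhibitory concentrations given in μg/mL.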
# Acinetobacter baumannii = assay: microbe, parasite or virus in culture; assay type: cell-based
# [6] = tested on: Mycobacterium tuberculosis strains
# Protocol: MIC values for various Chp peptides were determined using the CLSI method for broth microdilution in 96-well microtiter format.
# Next, MIC values for various Chp peptides were determined using the CLSI method above for broth microdilution in 96-well microtiter format for two different Mycobacterium tuberculosis strains. The MIC was determined as explained above for the NTM strains.
# [7] = tested on: carbapenem-resistant bacterial strains; assay: organism not typed; assay type: cell-based
# Text: as §1
# Escherichia coli = assay: microbe, parasite or virus in culture; assay type: cell-based
# Procedure, shortened: (§3)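 CAA + human serum as test medium; MIC read as lowest peptide concentration inhibiting growth.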
# Enterobacter cloacae = assay: microbe, parasite or virus in culture; assay type: cell-based
# Procedure, shortened: as §3
# M. smegmatis = assay: 45 hr MIC against M. smegmatis (NTM), Mueller Hinton broth; assay type: cell-based, Mycobacterium smegmatis
# [8] = tested on: Pseudomonas aeruginosa, Escherichia coli, Enterobacter cloacae, Klebsiella pneumoniae, and Acinetobacter baumannii; assay: MIC against a range of Gram-negative organisms (statements covering several species); assay type: cell-based; settings: Tables 40-44 isolates
# Protocol: as §1, §2
# [9] = tested on: P. aeruginosa strain CFS-1292; assay: MIC in presence and absence of Survanta pulmonary surfactant; assay type: cell-based, Pseudomonas aeruginosa
# [10] = tested on: M. kansasii Hauduroy ATCC 12478; assay: 45 hr MIC against M. kansasii (NTM), Mueller Hinton broth; assay type: cell-based, Mycobacterium kansasii
# M. intracellulare = assay: 45 hr MIC against M. intracellulare (NTM); assay type: cell-based, Mycobacterium intracellulare; settings: M. intracellulare (Cuttino and McCabe) Runyon ATCC 13950
# M. fortuitum = assay: 45 hr MIC against M. fortuitum (NTM); assay type: cell-based, Mycobacterium fortuitum; settings: M. fortuitum subsp. Fortuitum da Costa Cruz. ATCC 6841
# [11] = tested on: P. aeruginosa strain CFS-1292; assay: MIC in presence and absence of NaCl (140 mM); assay type: cell-based, Pseudomonas aeruginosa
# Protocol: Certain Chp peptides were evaluated over a range of physiological NaCl levels and pH values, and were further evaluated for activity in the presence of various divalent cations.
# [12] = K. pneumoniae isolates (n per peptide in table)
# [13] = S. maltophilia isolates (n per peptide in table)
# [14] = A. baumannii isolates (n per peptide in table)
# [15] = E. coli isolates (n per peptide in table)
# [16] = E. cloacae isolates (n per peptide in table)
sequence,measurement,setting,value
MRRRRLSRRTSRRFFRKGLKVRRRNLRARPMRGGFRI [Unp2],45 hr MIC,M. avium,0.5 µg/mL
same,MIC (100% CAA),[1],0.25
same,MIC,[2]; CAA media (pH 7),0.5 µg/mL
same,MIC,[2]; pH 6,0.5 µg/mL
same,MIC,[2]; pH 7,0.5 µg/mL
same,MIC,[2]; pH 8,0.5 µg/mL
same,MIC,[3]; CAA media + 1 mM MgSO4,0.25 µg/mL
same,MIC,[3]; CAA media + 2 mM CaCl2,0.25 µg/mL
same,MIC,[3]; CAA media + + 1 mM MgSO4,0.5 µg/mL
same,MIC,[3]; CAA media alone,0.25 µg/mL
same,MIC BALB/C Mouse Serum,[4]; BALB/C mouse serum […],>32 µg/mL
same,MIC CAA,[4]; CAA,0.5 µg/mL
same,MIC New Zealand White Rabbit Serum,[4]; New Zealand White rabbit serum […],4 µg/mL
same,MIC Sprague Dawley Rat Serum,[4]; Sprague Dawley rat serum […],8 µg/mL
same,MIC Human Serum,[4]; human serum […],0.5 µg/mL
same,MIC50,Klebsiella pneumoniae; [12],0.5 µg/mL
same,MIC100,Klebsiella pneumoniae; [12],1 µg/mL
same,MIC Range,Klebsiella pneumoniae; [12],0.25 to 1 µg/mL
same,MIC,"Klebsiella pneumoniae; Klebsiella pneumoniae HM-44, CAA supplemented with human serum",0.125 µg/mL
same,MIC (μg/mL) against CFS-1292 in 100% CAA (1st run/2nd run),"[5]; 100% CAA, 1st run or single value",0.5 µg/mL
same,MIC (μg/mL) against CFS-1292 in CAA + […] human serum,[5]; CAA + […] human serum,0.5 µg/mL
same,45 hr MIC,M. scrofulaceum,4 µg/mL
same,MIC50,Pseudomonas aeruginosa,1 µg/mL
same,MIC100,Pseudomonas aeruginosa,1 µg/mL
same,MIC Range,Pseudomonas aeruginosa,0.5 to 2 µg/mL
same,MIC50,S. maltophilia; [13],0.5 µg/mL
same,MIC100,S. maltophilia; [13],1 µg/mL
same,MIC Range,S. maltophilia; [13],0.25 to 2 µg/mL
same,activity against S. maltophilia,S. maltophilia; Table 45 isolates,active
same,MIC50,Acinetobacter baumannii; [14],0.5 µg/mL
same,MIC100,Acinetobacter baumannii; [14],0.5 µg/mL
same,MIC Range,Acinetobacter baumannii; [14],0.25 to 1 µg/mL
same,MIC,"Acinetobacter baumannii; Acinetobacter baumannii ATCC BAA 747, CAA supplemented with human serum",1 µg/mL
same,MIC,[6]; Mycobacterium tuberculosis (Zopf) Lehmann and Neumann ATCC 25177,16 µg/mL
same,MIC,[6]; Mycobacterium tuberculosis (Zopf) Lehmann and Neumann ATCC 35817,4 µg/mL
same,MIC,[7]; carbapenem-resistant isolate PA19,0.5 µg/mL
same,MIC,[7]; carbapenem-resistant isolate PA20,1 µg/mL
same,MIC,[7]; carbapenem-resistant isolate PA21,2 µg/mL
same,MIC,[7]; carbapenem-resistant isolate PA22,1 µg/mL
same,MIC,[7]; carbapenem-resistant isolate PA23,1 µg/mL
same,MIC,[7]; carbapenem-resistant isolate PA24,1 µg/mL
same,MIC,[7]; carbapenem-resistant isolate WLC-452,0.5 µg/mL
same,MIC50,Escherichia coli; [15],0.25 µg/mL
same,MIC100,Escherichia coli; [15],1 µg/mL
same,MIC Range,Escherichia coli; [15],0.125 to 1 µg/mL
same,MIC,"Escherichia coli; Escherichia coli ATCC 25922, CAA supplemented with human serum",0.25 µg/mL
same,MIC50,Enterobacter cloacae; [16],0.25 µg/mL
same,MIC100,Enterobacter cloacae; [16],0.5 µg/mL
same,MIC Range,Enterobacter cloacae; [16],0.25 to 2 µg/mL
same,MIC,"Enterobacter cloacae; Enterobacter cloacae ATCC 13047, CAA supplemented with human serum",16 µg/mL
same,45 hr MIC,"M. smegmatis; M. smegmatis MC^2 155, Run #1",2 µg/mL
same,45 hr MIC,"M. smegmatis; M. smegmatis MC^2 155, Run #2",4 µg/mL
same,"activity (good = MIC100 of ≤4) against all of P. aeruginosa, K. pneumoniae, A. baumannii, E. cloacae, and E. coli",[8],good activity
same,MIC,[9]; CAA media + 0.19 mg/mL Survanta,0.5 µg/mL
same,MIC,[9]; CAA media + […] Survanta,0.5 µg/mL
same,MIC,[9]; CAA media alone,0.5 µg/mL
same,45 hr MIC,[10],2 µg/mL
same,45 hr MIC,M. intracellulare,1 µg/mL
same,45 hr MIC,M. fortuitum,2 µg/mL
same,Fold change in MIC,[11]; CAA + 140 mM NaCl versus CAA without added NaCl,4
same,"MIC, CAA + 140 mM NaCl","[11]; CAA + 140 mM NaCl, P. aeruginosa CFS-1292",2 µg/mL
same,"MIC, CAA (no added NaCl)","[11]; CAA, no added NaCl, P. aeruginosa CFS-1292",0.5 µg/mL
